IC50 data for 32 compounds are collected here from US20080221086A1, “Novel Inhibitors of Glutaminyl Cyclase” (PROBIODRUG AG, priority 2006, published 2008).

SMILES strings stand for the structures. pIC50: −log10 of the molar value.

The term pIC50 denotes −log10 of the IC50, conventionally taken in molar units.

hQC, sequence (Q16769 29-361): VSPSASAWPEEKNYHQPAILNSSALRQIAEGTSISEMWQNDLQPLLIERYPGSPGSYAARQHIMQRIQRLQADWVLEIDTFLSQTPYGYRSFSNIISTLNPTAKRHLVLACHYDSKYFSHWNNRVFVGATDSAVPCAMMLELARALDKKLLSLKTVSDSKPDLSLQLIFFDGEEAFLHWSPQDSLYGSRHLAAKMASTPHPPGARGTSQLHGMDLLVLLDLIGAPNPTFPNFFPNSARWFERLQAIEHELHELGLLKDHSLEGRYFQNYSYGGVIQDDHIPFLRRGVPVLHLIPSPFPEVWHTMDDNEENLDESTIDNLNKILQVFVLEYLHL

One assay deals with hQC (Homo sapiens, UniProt Q16769). Briefly: Fluorometric assay of glutaminyl cyclase (QC) inhibition, H-Gln-βNA or H-Gln-AMC substrate. It is filed as biochemical. The settings on record: compound from preparative synthesis, purified by chromatography; fluorescent assay; read-out: IC50 hQC. The essentials:
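Ki values were obtained by fitting progress curves to a competitive-inhibition equation, and the rapid screen used 4 mM inhibitor with substrate at 1 KM. Both readouts coupled pyroglutamyl aminopeptidase at pH 8.0 and 30° C: H-Gln-βNA at 0.2 mM (ex/em 320/410 nm) or H-Gln-AMC (380/460 nm).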
Regarding `CC1=CC(C)C(C2/C(=N/C(C)C)NC(=O)N2c2ccc3[nH]cnc3c2)CC1` (stereo not drawn) [Compound 254, 1-(1H-Benzoimidazol-5-yl)-5-(2,4-dimethyl-cyclohex-3-enyl)-4-(isopropylimino)-imidazolidin-2-one], the pIC50 is 6.00.

Staying with this assay, now noted: read-out: IC50.
With `O=C1CCCN1CCC/N=C1\NC(=O)N(c2ccc3[nH]cnc3c2)C1c1ccnc2ccccc12` (stereo not drawn) [Compound 247, 1-(1H-Benzoimidazol-5-yl)-4-3-(2-oxo-pyrrolidin-1-yl)-propylimino-5-quinolin-4-yl-imidazolidin-2-one], the pIC50 is 5.51.

Regarding `O=C(C/N=C1/NC(=O)N(c2ccc3nc[nH]c3c2)C1c1ccc2[nH]ccc2c1)N1CCC(O)CC1` (stereo not drawn) [Compound 248, 1-(3H-Benzoimidazol-5-yl)-4-2-(4-hydroxy-piperidin-1-yl)-2-oxo-ethylimino-5-(1H-indol-5-yl)-imidazolidin-2-one], the pIC50 is 6.40.

`COC(=O)C(C)/N=C1\NC(=S)N(c2ccc3[nH]cnc3c2)C1c1ccc(C)cc1` (stereo not drawn) [Compound 249, Methyl 2-(1-(1H-benzo[d]imidazol-5-yl)-2-thioxo-5-p-tolylimidazolidin-4-ylideneamino)propanoate]: the pIC50 is 5.24.

For the compound `O=C(C/N=C1\NC(=O)N(c2ccc3nc[nH]c3c2)C1c1c(F)ccc(Cl)c1F)N1CCCCC1` (stereo not drawn) [Compound 250, 1-(3H-Benzoimidazol-5-yl)-5-(3-chloro-2,6-difluoro-phenyl)-4-2-oxo-2-piperidin-1-yl-ethylimino-imidazolidin-2-one], the pIC50 is 5.31.

Consider `S=C1N/C(=N/Cc2ccccc2)C(c2ccc(Cl)cc2)N1c1ccc2[nH]cnc2c1` (stereo not drawn) [Compound 251, 1-(1H-Benzoimidazol-5-yl)-4-benzylimino-5-(4-chloro-phenyl)-imidazolidine-2-thione], for which the pIC50 is 5.40.

For `O=C1CCCN1CCC/N=C1\NC(=S)N(c2ccc3[nH]cnc3c2)C1c1cc2ccccc2s1` (stereo not drawn) [Compound 252, 1-(3-(5-(benzo[b]thiophen-2-yl)-1-(1H-benzo[d]imidazol-5-yl)-2-thioxoimidazolidin-4-ylideneamino)propyl)pyrrolidin-2-one], the pIC50 was 5.12.

As for `Cc1cccc(C2/C(=N/CCCN(C)C)NC(=O)N2c2ccc3[nH]cnc3c2)c1` (stereo not drawn) [Compound 253, 4-(3-(Dimethylamino)propylimino)-1-(1H-benzo[d]imidazol-5-yl)-5-m-tolylimidazolidin-2-one], the pIC50 is 5.03.

Take `CC1=CC(C)C(C2/C(=N/C(C)C)NC(=O)N2c2ccc3[nH]cnc3c2)CC1` (stereo not drawn) [Compound 254, 1-(1H-Benzoimidazol-5-yl)-5-(2,4-dimethyl-cyclohex-3-enyl)-4-(isopropylimino)-imidazolidin-2-one]: the pIC50 is 8.40.

As to `O=C1CCCN1CCC/N=C1/NC(=S)N(c2ccc3[nH]cnc3c2)C1c1ccc2c(c1)OCO2` (stereo not drawn) [Compound 255, 1-(3-(5-(benzo[d][1,3]dioxol-5-yl)-1-(1H-benzo[d]imidazol-5-yl)-2-thioxoimidazolidin-4-ylideneamino)propyl)pyrrolidin-2-one], the pIC50 was 5.17.

With `S=C1N/C(=N\C2CCCC2)C(c2ccc3ccccc3c2)N1c1ccc2[nH]cnc2c1` (stereo not drawn) [Compound 256, 1-(1H-Benzoimidazol-5-yl)-4-cyclopentylimino-5-naphthalen-2-yl-imidazolidine-2-thione], the pIC50 was 5.03.

Turning to `Cc1nc[nH]c1C1/C(=N/C2CCc3ccccc32)NC(=O)N1c1ccc2nc[nH]c2c1` (stereo not drawn) [Compound 257, 3-(3H-Benzoimidazol-5-yl)-5-indan-1-ylimino-5′-methyl-1,3,4,5-tetrahydro-3′H-4,4′biimidazolyl-2-one], the pIC50 is 6.40.

For the compound `S=C1N/C(=N/CCCc2ccccc2)C(c2cc3ccccc3s2)N1c1ccc2[nH]cnc2c1` (stereo not drawn) [Compound 258, 5-Benzobthiophen-2-yl-1-(1H-benzoimidazol-5-yl)-4-3-phenyl-propylimino-imidazolidine-2-thione], the pIC50 was 5.51.

For the compound `CC1=CC(C)C(C2/C(=N/c3ccc4c(c3)OCCO4)NC(=O)N2c2ccc3[nH]cnc3c2)CC1` (stereo not drawn) [Compound 259, 1-(1H-Benzoimidazol-5-yl)-4-2,3-dihydro-benzo1,4dioxin-6-ylimino-5-(2,4-dimethyl-cyclohex-3-enyl)-imidazolidin-2-one], the pIC50 is 5.66.

Turning to `S=C1N/C(=N/CCc2cccs2)C(c2cc3ccccc3s2)N1c1ccc2[nH]cnc2c1` (stereo not drawn) [Compound 260, 5-Benzobthiophen-2-yl-1-(1H-benzoimidazol-5-yl)-4-2-thiophen-2-yl-ethylimino-imidazolidine-2-thione], the pIC50 is 5.51.

Turning to `S=C1N/C(=N/Cc2ccccc2)C(c2cccc(Br)c2)N1c1ccc2[nH]cnc2c1` (stereo not drawn) [Compound 261, 1-(1H-Benzoimidazol-5-yl)-4-benzylimino-5-(3-bromo-phenyl)-imidazolidine-2-thione], the pIC50 is 5.17.

Regarding `Cc1ccc(C2/C(=N/C(C)(C)CC(C)(C)C)NC(=O)N2c2ccc3nc[nH]c3c2)c(C)c1` (stereo not drawn) [Compound 262, 1-(3H-Benzoimidazol-5-yl)-5-(2,4-dimethyl-phenyl)-4-1,1,3,3-tetramethyl-butylimino-imidazolidin-2-one], the pIC50 was 5.89.

In the case of `Cc1ccc2occ(C3/C(=N/CCCN4CCOCC4)NC(=O)N3c3ccc4[nH]cnc4c3)c(=O)c2c1` (stereo not drawn) [Compound 263, 1-(1H-Benzoimidazol-5-yl)-5-(6-methyl-4-oxo-4H-chromen-3-yl)-4-3-morpholin-4-yl-propylimino-imidazolidin-2-one], the pIC50 was 5.89.

As for `S=C1N/C(=N\c2ccccc2Br)C(c2ccc3ccccc3c2)N1c1ccc2nc[nH]c2c1` (stereo not drawn) [Compound 264, 1-(3H-Benzoimidazol-5-yl)-4-2-bromo-phenylimino-5-naphthalen-2-yl-imidazolidine-2-thione], the pIC50 is 5.07.

Regarding `O=C(C/N=C1/NC(=O)N(c2ccc3[nH]cnc3c2)C1C1=CCCCC1)N1CCSCC1` (stereo not drawn) [Compound 265, 1-(1H-Benzoimidazol-5-yl)-5-cyclohex-1-enyl-4-2-oxo-2-thiomorpholin-4-yl-ethylimino-imidazolidin-2-one], the pIC50 was 5.07.

Take `S=C1N/C(=N\C2CCCCC2)C(c2cc3c(cc2Br)OCO3)N1c1ccc2nc[nH]c2c1` (stereo not drawn) [Compound 266, 1-(3H-Benzoimidazol-5-yl)-5-(6-bromo-benzo1,3dioxol-5-yl)-4-cyclohexylimino-imidazolidine-2-thione]: the pIC50 is 5.07.

Consider `Cc1ccc2occ(C3/C(=N/CCCN4CCCC4=O)NC(=O)N3c3ccc4[nH]cnc4c3)c(=O)c2c1` (stereo not drawn) [Compound 267, 1-(1H-Benzoimidazol-5-yl)-5-(6-methyl-4-oxo-4H-chromen-3-yl)-4-3-(2-oxo-pyrrolidin-1-yl)-propylimino-imidazolidin-2-one], for which the pIC50 is 5.31.

Turning to `COC(=O)C(C)/N=C1/NC(=S)N(c2ccc3[nH]cnc3c2)C1c1c(F)ccc(Cl)c1F` (stereo not drawn) [Compound 268, Methyl 2-(1-(1H-benzo[d]imidazol-5-yl)-5-(3-chloro-2,6-difluorophenyl)-2-thioxoimidazolidin-4-ylideneamino)propanoate], the pIC50 is 5.03.

For `C/N=C1/NC(=O)N(c2ccc3[nH]cnc3c2)C1c1ccc(N2CCCC2)cc1` (stereo not drawn) [Compound 269, 1-(1H-Benzoimidazol-5-yl)-4-methylimino-5-(4-pyrrolidin-1-yl-phenyl)-imidazolidin-2-one], the pIC50 was 5.51.

`O=C(C/N=C1/NC(=S)N(c2ccc3[nH]cnc3c2)C1c1ccnc2ccccc12)N1CCC(O)CC1` (stereo not drawn) [Compound 270, 2-(1-(1H-benzo[d]imidazol-5-yl)-5-(quinolin-4-yl)-2-thioxoimidazolidin-4-ylideneamino)-1-(4-hydroxypiperidin-1-yl)ethanone]: the pIC50 was 5.89.

Consider `O=C1N/C(=N/Cn2nnc3ccccc32)C(c2ccc3nsnc3c2)N1c1ccc2[nH]cnc2c1` (stereo not drawn) [Compound 271, 1-(1H-Benzoimidazol-5-yl)-5-benzo[c][1,2,5]thiadiazol-5-yl-4-benzotriazol-1-ylmethylimino-imidazolidin-2-one], for which the pIC50 was 6.40.

Turning to `S=C1N/C(=N\C2CCCC2)C(c2ccc(Cl)cc2)N1c1ccc2[nH]cnc2c1` (stereo not drawn) [Compound 272, 1-(1H-Benzoimidazol-5-yl)-5-(4-chloro-phenyl)-4-cyclopentylimino-imidazolidine-2-thione], the pIC50 was 5.07.

`CC1=CC(C)C(C2/C(=N/C3CCc4ccccc43)NC(=S)N2c2ccc3[nH]cnc3c2)CC1` (stereo not drawn) [Compound 273, 1-(1H-Benzoimidazol-5-yl)-5-(2,4-dimethyl-cyclohex-3-enyl)-4-indan-1-ylimino-imidazolidine-2-thione]: the pIC50 is 5.12.

In the case of `CC1=CC(C)C(C2/C(=N/CCCN3CCCC3=O)NC(=O)N2c2ccc3[nH]cnc3c2)CC1` (stereo not drawn) [Compound 275, 1-(1H-Benzoimidazol-5-yl)-5-(2,4-dimethyl-cyclohex-3-enyl)-4-3-(2-oxo-pyrrolidin-1-yl)-propylimino-imidazolidin-2-one], the pIC50 is 5.40.

As for `CC1=CC(C)C(C2/C(=N/C(C)C(C)(C)C)NC(=S)N2c2ccc3nc[nH]c3c2)CC1` (stereo not drawn) [Compound 276, 1-(1H-Benzoimidazol-5-yl)-5-(2,4-dimethyl-cyclohex-3-enyl)-4-1,2,2-trimethyl-propylimino-imidazolidine-2-thione], the pIC50 was 5.12.

`Cc1cccc(C2/C(=N\Cn3nnc4ccccc43)NC(=S)N2c2ccc3nc[nH]c3c2)n1` (stereo not drawn) [Compound 277, 1-(3H-Benzoimidazol-5-yl)-4-benzotriazol-1-ylmethylimino-5-(6-methyl-pyridin-2-yl)-imidazolidine-2-thione]: the pIC50 was 5.40.

Consider `S=C1N/C(=N\C2CCCc3ccccc32)C(c2ccccc2Cl)N1c1ccc2[nH]cnc2c1` (stereo not drawn) [Compound 278, 1-(1H-Benzoimidazol-5-yl)-5-(2-chloro-phenyl)-4-1,2,3,4-tetrahydro-napthalen-1-ylimino-imidazolidine-2-thione], for which the pIC50 was 5.17.

With `S=C1NC(=NCn2nnc3ccccc32)C(c2ccnc3ccccc23)N1c1ccc2nc[nH]c2c1` (stereo not drawn) [Compound 279, 1-(3H-Benzoimidazol-5-yl)-4-benzotriazol-1-ylmethylimino-5-quinolin-4-yl-imidazolidine-2-thione], the pIC50 is 5.66.
